“Also recorded” adds a separate entry of the source.
Key:
Adult C57BL/6 mice = experiment: Conditioned place preference (CPP); type: in vivo; details: for MPH-induced place preference / CPP score compared to the saline group: naltrexone 10 mg/kg (highest dose) prior to MPH 7.5 mg/kg; for place preference (CPP): naltrexone 1 or 10 mg/kg alone; for effect on high dose MPH-induced CPP (rewarding effects): naltrexone prior to MPH, naltrexone dose not stated
Experimental: Photobeams wired to a computer can record animal location (time spent in the chamber). The central chamber has a smooth floor with gray color. Each preference chamber is either white with a mesh floor or black with a bar floor. The CPP procedure included three phases. (1) The pre-conditioning phase was performed on day 1 (two sessions daily, AM and PM). In each preconditioning session, mice were initially placed in the central gray chamber for 2 min and then allowed free access to the white and black chambers for 20 min. The time spent in each chamber was recorded. […] (2) The conditioning phase was carried out on each of days 2 to 6 [two sessions daily, AM and PM one each for vehicle-paired (saline as vehicle) and drug-paired (cocaine or MPH as drugs) sessions]. In the vehicle-paired session mice were injected with saline (i.p.) and placed in the central gray chamber for 2 min (to isolate injection effect to the central chamber) and then confined to the vehicle-paired chamber for 30 min. In the drug-paired session, the mice were given the drug in the central chamber, retained there for 2 min and then confined for 30 min in the drug-paired chamber. […] The time spent in each chamber was recorded. The difference between time spent in the drug-paired chamber during the test phase and pre-conditioning phases was calculated as the CPP score.

μ opioid receptor (MOPR) [1] = molecular target: T1, μ opioid receptor (MOPR) (Mus musculus, UniProt P42866); experiment: DAMGO-stimulated [35S]GTPγS binding (MOPR activity) in caudate-putamen and nucleus accumbens membranes of drug-treated mice from the CPP assay; type: in vivo; details: for MOPR activity (DAMGO-stimulated [35S]GTPγS binding) compared to saline: caudate-putamen and nucleus accumbens, 10 μM DAMGO
T1 construct: The caudate-putamen and nucleus accumbens were microdissected and the tissue was homogenized; from tissue; host or cells: mouse brain: caudate-putamen and nucleus accumbens membrane preparations
Experimental: (§1) MOPR activity was assayed by using [^35S]GTPγS binding on membrane preparations using a modification of the previously described method^23. The mice were sacrificed by cervical dislocation and the brain was dissected rapidly. The caudate-putamen and nucleus accumbens were microdissected and the tissue was homogenized using teflon pistol in Eppendorf tubes (10 strokes) in 300 μl of homogenization buffer containing 25 mM Tris/pH7.4, 5 mM EDTA and 0.1 mM PMSF and kept on ice. Homogenate was diluted to 2.5 ml using the homogenization buffer and centrifuged at ˜350,000 g for 30 min. After washing 3 times with 50 mM Tris-HCl/pH7.4, the pellets were re-suspended in 50 mM Tris-HCl/pH7.4 containing 0.32 M sucrose, passed through a 26.5 G needle for 3 times, frozen in dry ice/ethanol and stored in −80° C. until use. […] Bound and free [^35S]GTPγS were separated by filtration with GF/B filters under reduced pressure. Radioactivity on filters was determined by liquid scintillation counting. Nonspecific binding was subtracted from total stimulated and basal binding. […] MOPR activity was reported as % of baseline (unstimulated) activity: [Disintegrations per minute (DPM) with agonist stimulated binding−DPM of nonspecific binding)/(DPM basal (without agonist)−DPM nonspecific)×100. Protein content of membranes was determined by the BCA method of^24 with bovine serum albumin as the standard.

mice = experiment: Locomotor activity measured during the CPP assay; type: in vivo; details: for MPH-induced increase in locomotor activity: naltrexone 1, 5 or 10 mg/kg 30 min prior to MPH 7.5 mg/kg
Experimental: In control groups, saline or naltrexone at each of the doses was administered alone (without MPH).

[2] = system: frontal cortical dopamine levels; details: cited from earlier work
rats = details: 0.5 mg/kg MPH, rats (Paine et al., 2007); cited from earlier work
[3] = cited from earlier work
healthy human volunteers = details: studies that evaluated detection/likeability (Kollins et al., 2001); cited from earlier work
KOPR = details: 2.5 mg/kg; s.c. (Xia et al., 2007); cited from earlier work
μ opioid receptor (MOPR) [4] = molecular target: T1, μ opioid receptor (MOPR); experiment: DAMGO concentration-dependent [35S]GTPγS binding in caudate-putamen and nucleus accumbens membrane preparations; type: biochemical, mice
Experimental: as §1

[5] = MPH 7.5 mg/kg vs cocaine 10 mg/kg
[6] = 0.75 mg/kg dose (Balcioglu et al., 2009)
[7] = naltrexone 1, 5 or 10 mg/kg prior to MPH 7.5 mg/kg

T1 sequence (P42866 whole entry): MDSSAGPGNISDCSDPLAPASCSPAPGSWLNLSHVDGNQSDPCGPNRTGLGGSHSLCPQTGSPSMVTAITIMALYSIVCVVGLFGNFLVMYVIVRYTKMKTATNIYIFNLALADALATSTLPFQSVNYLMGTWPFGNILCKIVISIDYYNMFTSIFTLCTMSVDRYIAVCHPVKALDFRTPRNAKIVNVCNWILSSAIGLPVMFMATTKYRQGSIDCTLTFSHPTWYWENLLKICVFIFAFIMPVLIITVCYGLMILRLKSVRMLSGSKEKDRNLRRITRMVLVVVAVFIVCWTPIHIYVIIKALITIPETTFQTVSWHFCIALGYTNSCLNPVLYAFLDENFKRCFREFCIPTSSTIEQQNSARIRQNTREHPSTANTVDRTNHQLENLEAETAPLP

## COC(=O)C(c1ccccc1)C1CCCCN1 (stereo not drawn) [MPH, Methylphenidate]
Adult C57BL/6 mice; MPH 0.75 mg/kg (low, therapeutic dose) i.p.
  place preference: time spent in the drug-paired chamber, test vs pre-conditioning sessions: did not; also recorded: neither induce place preference; also recorded: do not; also recorded: no statistically significant difference
Adult C57BL/6 mice; MPH 7.5 mg/kg (high, supra-therapeutic dose) i.p., alone
  place preference: time spent in the drug-paired chamber, test vs pre-conditioning sessions: showed significant place preference; also recorded: induced CPP; also recorded: produce CPP; also recorded: induce place preference; also recorded: produce place preference; also recorded: spent significantly longer period of time in the drug-paired chamber; also recorded: produced significant increase
Adult C57BL/6 mice; MPH 7.5 mg/kg i.p.
  CPP score compared to the saline and low dose MPH groups: significantly higher CPP scores
Adult C57BL/6 mice; [5]
  CPP score, high dose MPH group vs cocaine group: no statistically significant difference
μ opioid receptor (MOPR) [1]; 7.5 mg/kg MPH to 25-day old mice for 5 days, expected
  MOPR activity: MOPR upregulation
μ opioid receptor (MOPR) [1]; MPH 0.75 mg/kg i.p.
  MOPR activity (DAMGO-stimulated [35S]GTPγS binding) compared to saline: did not produce significant enhancements
μ opioid receptor (MOPR) [1]; MPH 7.5 mg/kg i.p.
  MOPR activity (DAMGO-stimulated [35S]GTPγS binding) compared to saline: significantly greater; also recorded: activate MOPR; also recorded: upregulation of striatal MOPR; also recorded: upregulate MOPR activity; also recorded: significantly higher MOPR activity
μ opioid receptor (MOPR) [1]; [5]
  MOPR activity, high dose MPH group vs cocaine group: no significant difference
mice; MPH 0.75 mg/kg
  locomotor activity compared to saline: no significant effect
mice; MPH 7.5 mg/kg
  locomotor activity compared to saline: significantly increased locomotor activity; also recorded: increased locomotor activity significantly
[2]; [6]
  time after MPH administration at which increases in frontal cortical dopamine levels occur: ~60 min
[2]; low doses of MPH (literature)
  effect on neurotransmitter levels: selectively affect neurotransmitter levels in the frontal cortex
rats
  accuracy in 5-CSRT assay: increased accuracy
[3]; 0.75 mg/kg MPH, adult mice (ref. 19)
  serum and brain concentrations of d-methylphenidate: equivalent to its serum and brain (estimated) concentrations in ADHD patients taking therapeutic doses of MPH
[3]; [6]
  clinically relevant serum levels of D-MPH: 6 to 10 ng/mL
  time brain levels remain high: ~30 min
  time to reach clinically relevant serum levels of D-MPH: ≤ 15 min
Healthy human volunteers
  studies reporting subjective responses to oral MPH: 18 (72%) of 25 studies

## CCN1CCC[C@H]1CNC(=O)c1c(O)c(Cl)cc(Cl)c1OC [raclopride]
Adult C57BL/6 mice; MPH 7.5 mg/kg + raclopride
  CPP score compared to the MPH only group: did not show significant differences

## O=C1CC[C@@]2(O)[C@H]3Cc4ccc(O)c5c4[C@@]2(CCN3CC2CC2)[C@H]1O5 [naltrexone]
Adult C57BL/6 mice; 7.5 mg/kg MPH, preliminary findings
  naltrexone dose needed to block reinforcing properties of MPH: at least 5 mg/kg
Adult C57BL/6 mice
  MPH-induced place preference / CPP score compared to the saline group: not significantly different from that for the saline group
  place preference (CPP): did not induce CPP
  effect on high dose MPH-induced CPP (rewarding effects): can significantly attenuate rewarding effects of MPH
Adult C57BL/6 mice; listed as Naltrexone
  MPH-induced place preference / CPP score compared to the saline group: blocking it completely
  place preference (CPP): did not affect CPP
  effect on high dose MPH-induced CPP (rewarding effects): prevents MPH-induced CPP; also recorded: attenuates high dose MPH-induced place preference
Adult C57BL/6 mice; naltrexone 1, 5 or 10 mg/kg administered prior to MPH 7.5 mg/kg
  time spent in the drug-paired chamber, PC vs Test sessions: significant difference between PC and Test sessions
Adult C57BL/6 mice; [7]
  CPP score compared to MPH administered alone: significantly decreased the CPP score
  dose dependence of the decrease in the CPP score: dose-dependent
Adult C57BL/6 mice; naltrexone 5 or 10 mg/kg 30 min prior to MPH 7.5 mg/kg
  MPH-induced CPP / CPP score compared to MPH administered alone: significantly lower; also recorded: blocks MPH-induced conditioned place preference (CPP)
mice
  MPH-induced increase in locomotor activity: not affected
mice; listed as Naltrexone
  MPH-induced increase in locomotor activity: did not block the MPH-induced increases in locomotor activity
mice; naltrexone 1, 5 or 10 mg/kg alone
  locomotor activity: did not affect locomotor activity

## CC(N)Cc1ccccc1 (stereo not drawn) [Amphetamine]
KOPR
  KOPR signaling in the nucleus accumbens: modulates KOPR signaling in the nucleus accumbens in a region-specific manner

## C[C@@H](NC(=O)[C@@H](N)Cc1ccc(O)cc1)C(=O)NCC(=O)N(C)[C@@H](Cc1ccccc1)C(=O)NCCO [DAMGO]
μ opioid receptor (MOPR) [4]
  concentration at which maximal [35S]GTPγS binding was reached: 10 µM
μ opioid receptor (MOPR) [4]; at 10 μM DAMGO
  maximal [35S]GTPγS binding: 1.75 fold of the basal level

Reference: patent publication US11045465B2, “Methods and compositions to prevent addiction” (FLORIDA STATE UNIVERSITY RESEARCH FOUNDATION, INC., priority 2009, dated 2021)
